Values joined by “and” are separate entries in the source; they are usually repeats but may differ in a detail not shown here. Equal values may be shown once. Read-outs that look alike come from different tables or passages of the source. Marks after values point to notes of the source that are not given here.
Experiments:
Zebra mussels [1] = experiment: Experiment 1: toxicity of different masses of KCl to Zebra mussels over two days; type: in vivo, Dreissena polymorpha
Protocol: The toxicity of KCl alone to Zebra mussels is illustrated in Table 1 below, which gives the results of the following experiment:
1) A series of pots where filled with 20 ml of distilled water plus a specified mass of KCl crystals, ground to less than 53 microns. The masses of KCl were chosen to represent the total amount of KCl that would be ingested by a mussel filtering 1 litre of water per day.
2) One mussel was placed in each pot (it was assumed that the mussel would continuously re-filter the limited amount of solution in the pot and thus ingest the required amount of KCl.

Zebra mussels [2] = type: in vivo, Dreissena polymorpha; settings: Mass of toxin 100 mg
Text: The toxicity of an alternative toxin was also investigated and compared with that of KCl.

Zebra mussels [3] = experiment: Experiment 8: Batch 7 particles versus KCl in beakers; type: in vivo, Dreissena polymorpha; settings: for No. of live mussels in each pot: 1.15 g KCl
Protocol: A batch of particles (“Batch 7”) was manufactured by a fluidised bed coating method. 98 μm KCl particles were passed through a 350 μm sieve with 1% silica to help fluidisation. 800 g of solids were sprayed with palmitic acid (MP 61° C.) for 20 minutes at approximately 12 ml min^−1. 400 g of the resulting solids were then further coated with palmitic acid to finally produce particles containing between 20 and 25% wt of KCl.
40 1-litre beakers were filled with 500 ml of tap water and aerated overnight in a temperature controlled room at 25° C. Ten large Zebra mussels were placed into each beaker, attempting to keep a similar size range in all. Five different treatments were applied (such that each had eight replicates); • 1. 5 g of (Batch 7) was added. • 2. 0.5 g of (Batch 7) was added. • 3. 0.05 g of (Batch 7) was added. • 4. 5 g of Palmitic acid alone was added. • 5. 1.15 g of KCl (the same amount by mass as in 5 g of Batch 7) was added.
Each treatment substance was thoroughly stirred into each beaker and aeration continued for the duration of the experiment. At reasonably regular intervals, the number of dead mussels (as indicated by gape) were counted in each pot, before being removed and measured. This was continued until most were dead, or 72 hours had elapsed.

Rainbow Trout = Rainbow Trout 0.8-1.2 g; cited from earlier work
Channel Catfish = Channel Catfish 0.8-1.2 g; cited from earlier work
Threehorn Wartyback = tested on: Threehorn Wartyback; parameters: unit not given here; settings: Threehorn Wartyback 30-50 mm; cited from earlier work
Zebra Mussel = settings: cited from earlier work

[Cl-].[K+] [KCl, potassium chloride]
state of mussel (Zebra mussels [1]; 0.1 mg KCl, 17/03/99 16:30): Alive
state of mussel (Zebra mussels [1]; 0.1 mg KCl, 18/03/99 11:30): Alive
state of mussel (Zebra mussels [1]; 0.1 mg KCl, 18/03/99 13:30): Alive
state of mussel (Zebra mussels [1]; 0.1 mg KCl, 19/03/99 16:00): Alive
state of mussel (Zebra mussels [1]; 0.5 mg KCl, 17/03/99 16:30): Alive
state of mussel (Zebra mussels [1]; 0.5 mg KCl, 18/03/99 11:30): Alive
state of mussel (Zebra mussels [1]; 0.5 mg KCl, 18/03/99 13:30): Closed
state of mussel (Zebra mussels [1]; 0.5 mg KCl, 19/03/99 16:00): Alive
state of mussel (Zebra mussels [1]; 1 mg KCl, 17/03/99 16:30): Alive
state of mussel (Zebra mussels [1]; 1 mg KCl, 18/03/99 11:30): Alive
state of mussel (Zebra mussels [1]; 1 mg KCl, 18/03/99 13:30): Alive
state of mussel (Zebra mussels [1]; 1 mg KCl, 19/03/99 16:00): Alive
state of mussel (Zebra mussels [1]; 5 mg KCl, 17/03/99 16:30): Alive
state of mussel (Zebra mussels [1]; 5 mg KCl, 18/03/99 11:30): Alive
state of mussel (Zebra mussels [1]; 5 mg KCl, 18/03/99 13:30): Alive
state of mussel (Zebra mussels [1]; 5 mg KCl, 19/03/99 16:00): Alive
state of mussel (Zebra mussels [1]; 10 mg KCl, 17/03/99 16:30): Alive
state of mussel (Zebra mussels [1]; 10 mg KCl, 18/03/99 11:30): Alive
state of mussel (Zebra mussels [1]; 10 mg KCl, 18/03/99 13:30): Closed
state of mussel (Zebra mussels [1]; 10 mg KCl, 19/03/99 16:00): Dead
state of mussel (Zebra mussels [1]; 25 mg KCl, 17/03/99 16:30): Alive
state of mussel (Zebra mussels [1]; 25 mg KCl, 18/03/99 11:30): Dead
state of mussel (Zebra mussels [1]; 25 mg KCl, 18/03/99 13:30): Dead
state of mussel (Zebra mussels [1]; 25 mg KCl, 19/03/99 16:00): Dead
state of mussel (Zebra mussels [1]; 50 mg KCl, 17/03/99 16:30): Alive
state of mussel (Zebra mussels [1]; 50 mg KCl, 18/03/99 11:30): Dead
state of mussel (Zebra mussels [1]; 50 mg KCl, 18/03/99 13:30): Dead
state of mussel (Zebra mussels [1]; 50 mg KCl, 19/03/99 16:00): Dead
effectiveness of KCl alone over the test period (Zebra mussels [1]; lower concentrations): not effective
Time for mortality of all mussels (Zebra mussels [2]): 8 h
mortality (Zebra mussels [2]; at 8 hours): 60%
No. of live mussels in each pot (Zebra mussels [3]; 0.5 hrs): 10
No. of live mussels in each pot (Zebra mussels [3]; 1 hrs): 10 and 9
No. of live mussels in each pot (Zebra mussels [3]; 1.5 hrs): 10 and 9
No. of live mussels in each pot (Zebra mussels [3]; 2 hrs): 10 and 9 and 7
No. of live mussels in each pot (Zebra mussels [3]; 3 hrs): 9 and 8 and 7 and 10
No. of live mussels in each pot (Zebra mussels [3]; 3.5 hrs): 9 and 8 and 7 and 6
No. of live mussels in each pot (Zebra mussels [3]; 4.5 hrs): 8 and 7 and 5 and 6 and 9
No. of live mussels in each pot (Zebra mussels [3]; 5 hrs): 7 and 6 and 4 and 5 and 8
No. of live mussels in each pot (Zebra mussels [3]; 6 hrs): 6 and 4 and 5 and 7
No. of live mussels in each pot (Zebra mussels [3]; 7.5 hrs): 6 and 4 and 3 and 5
mortality (Zebra mussels [3]; 1.15 g of KCl, especially over the first 8 hours): rapid mortality
48-hour LC50 (Rainbow Trout): 1610 µg/mL
48-hour LC50 (Channel Catfish): 720 µg/mL
48-hour LC50 (Threehorn Wartyback): >2000^a
48-hour LC50 (Zebra Mussel; Zebra Mussel 5-8 mm): 147 µg/mL
48-hour LC50 (Zebra Mussel; Zebra Mussel 20-25 mm): 150 µg/mL
